The text below walks through data of ChEMBL document CHEMBL1201862, “PubChem BioAssay data set” (2004).

Assay in all cases: inhibition of tumour cell growth, NCI panel, 48 h
The test system of test [1] is 786-0.
The subject of test [2] is CCRF-CEM.
Test [3] relates to HCT-15.
Test [4] relates to Hs-578T.
Test [5] has as its system IGROV-1.
Test [6] deals with KM12.
Test [7] has as its system MCF7.
Test [8] relates to MDA-N.
The test system of test [9] is NCI-H226.
Test [10] deals with NCI-H460.
The test system of test [11] is OVCAR-8.
The subject of test [12] is RPMI-8226.
The test system of test [13] is SK-MEL-2.
Test [14] relates to SN12C.
For test [15], the system named is UO-31.
Test [16] deals with NCI-H23.
In test [17] the test system is OVCAR-3.
Test [18] has as its system HOP-92.

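96-well plates; 48 h exposure; 5 concentrations. Endpoints by linear interpolation between flanking doses. Not reached: highest tested concentration assigned. GI50 = concentration required for 50% inhibition of growth.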 Calls of active or inactive are those of the source. Cut-off read from the data, not from the text of the source: active = GI50 up to about 1.1 µM and inactive = higher.

For the compound `COc1ccc(C(=O)/C=C/c2ccc(OCCSCCCCCCCCCCSCCOc3ccc(/C=C/C(=O)c4ccc(OC)cc4)cc3)cc2)cc1`, the GI50 was > 100 µM (inactive) in test [1]; > 100 µM (inactive) in [2]; over 100 µM in [3]; > 100 µM (inactive) in [4]; > 100 µM (inactive) in test [5]; > 100 µM (inactive) in [6]. Also, the GI50 in test [7] was > 100 µM (inactive); in test [8] it was < 0.01 µM (active); in test [9], > 100 µM (inactive); in [10], > 100 µM (inactive); in [11], > 100 µM (inactive); in [12] it was > 100 µM (inactive). For the same compound, the GI50 in test [13], in test [14] and in test [15] was > 100 µM (inactive) throughout.

Regarding `O=C(Cn1c(=O)ccn(C2OC(CO)C(O)C2F)c1=O)c1ccc(F)cc1` (configuration not stated), the GI50 is > 100 µM (inactive) in test [1]; > 100 µM (inactive) in test [2]; over 100 µM in [3]; > 100 µM (inactive) in test [4]; > 100 µM (inactive) in test [5]; > 100 µM (inactive) in test [6]. In addition, the GI50 in test [7], in [8], in [9], in [16], in [10] and in test [17] was > 100 µM (inactive) in each case. Further, the GI50 in test [11], in test [12], in [14] and in test [15] was > 100 µM (inactive) each time.

Take `COCCCN1C(=O)C2c3[nH]c4ccccc4c3C3CCC(C(C)(C)C)CC3C2C1=O` (configuration not stated): the GI50 in test [1] was 22.7 µM (inactive); in test [2], 22.6 µM (inactive); in test [3], 19.8 µM; in test [4], 32.1 µM (inactive); in [5], > 100 µM (inactive); in [6], 20.7 µM (inactive). Also, the GI50 in [7] is 20.6 µM (inactive); in test [8] it was 35.6 µM (inactive); in test [9] it was 25.4 µM (inactive); in [16], 27 µM (inactive); in [10], 18.7 µM (inactive); in test [17], 17.4 µM (inactive). Also, the GI50 in [11] is 35.5 µM (inactive); in test [12], 22.6 µM (inactive); in test [14], 21.4 µM (inactive); in test [15], 54.3 µM (inactive).

Consider `Cn1c2ccccc2n2c3ncccc3c(=S)c(C#N)c12`, for which the GI50 in test [1] is 75.7 µM (inactive); in test [2] it was > 100 µM (inactive); in test [3], over 100 µM; in test [4] it was > 100 µM (inactive); in [5] it was > 100 µM (inactive); in test [6], > 100 µM (inactive). The GI50 was > 100 µM (inactive) in [7]; > 100 µM (inactive) in [8]; > 100 µM (inactive) in test [9]; > 100 µM (inactive) in test [16]; 90.4 µM (inactive) in [10]; > 100 µM (inactive) in test [17]. Besides, the GI50 in test [11], in test [12], in test [13], in test [14] and in [15] was > 100 µM (inactive) throughout.

`COC12CCCN1c1ccn(Cc3ccccc3)c(=O)c1C2=O` (configuration not stated): the GI50 in test [1] is > 100 µM (inactive); in test [2], 82 µM (inactive); in test [3], over 100 µM; in test [18], > 100 µM (inactive); in test [4] it was > 100 µM (inactive); in test [5] it was > 100 µM (inactive). Moreover, the GI50 in test [6], in [7], in test [8], in test [9], in [16] and in test [10] was > 100 µM (inactive) throughout. The GI50 in test [17], in [11], in test [13], in test [14] and in [15] was > 100 µM (inactive) in each case.

As for `O=C1c2cn[nH]c2N=C(Nc2ccccc2)C1/N=C/c1ccc([N+](=O)[O-])cc1` (configuration not stated), the GI50 in [1], in test [2], in test [4], in test [6], in [7] and in test [8] was > 10 µM (inactive) each time. Further, the GI50 in test [9], in test [16], in test [10], in [17], in [11] and in test [14] was > 10 µM (inactive) in each case. Besides, the GI50 in [15] was > 10 µM (inactive).

On to `COc1ccc(C(=O)C(CC2C(=O)CC(C)(C)C(C(=O)C(=O)Nc3c(C)cccc3C)C2=O)c2ccc(OC)cc2)cc1` (configuration not stated), for which the GI50 was > 100 µM (inactive) in test [1]; > 100 µM (inactive) in test [2]; over 100 µM in [3]; > 100 µM (inactive) in test [18]; > 100 µM (inactive) in [4]; > 100 µM (inactive) in [5]. Further, the GI50 in test [6], in [7], in test [8], in [9], in test [16] and in [10] was > 100 µM (inactive) each time. For the same compound, the GI50 in test [17] was > 100 µM (inactive); in [11], > 100 µM (inactive); in test [13], > 100 µM (inactive); in test [14] it was > 100 µM (inactive); in test [15], 70.1 µM (inactive).

With `Cc1ccc2[nH]c(=O)c(-c3cnc(O)nn3)c(O)c2c1`, the GI50 in test [1] was > 100 µM (inactive); in test [2] it was > 100 µM (inactive); in test [3], over 100 µM; in test [4], > 100 µM (inactive); in [5], > 100 µM (inactive); in [6] it was > 100 µM (inactive). The GI50 was 36.9 µM (inactive) in test [7]; 17.7 µM (inactive) in [8]; > 100 µM (inactive) in test [9]; 86.7 µM (inactive) in test [16]; > 100 µM (inactive) in [10]; 58.1 µM (inactive) in test [17]. Moreover, the GI50 in test [11] was > 100 µM (inactive); in test [12], 6.24 µM (inactive); in test [13], 45 µM (inactive); in test [14], > 100 µM (inactive); in test [15], 16.6 µM (inactive).

Turning to `Oc1c(CN2CCN(c3ccccc3)CC2)cc(Br)c2cccnc12`, the GI50 in test [1] is 1.4 µM (inactive); in [2], 0.271 µM (active); in [3], 0.135 µM; in test [18], 2.2 µM (inactive); in test [4], 3.33 µM (inactive); in test [5] it was 0.834 µM (active). The GI50 in [6] was 1.56 µM (inactive); in test [7] it was 0.966 µM (active); in test [8] it was 0.855 µM (active); in test [16], 1.82 µM (inactive); in test [10], 0.244 µM (active); in [17], 0.423 µM (active). For the same compound, the GI50 in test [11] is 0.721 µM (active); in test [12], 0.361 µM (active); in test [13], 2.17 µM (inactive); in test [14], 0.991 µM (active); in test [15] it was 0.393 µM (active).

Consider `COC1C(=O)N(SC)C1c1ccccc1Cl` (configuration not stated), for which the GI50 is 18.7 µM (inactive) in test [1]; 14.6 µM (inactive) in [2]; 22.3 µM in test [3]; 36.1 µM (inactive) in test [18]; > 100 µM (inactive) in test [4]; 18.7 µM (inactive) in test [5]. Further, the GI50 is > 100 µM (inactive) in [6]; 19.7 µM (inactive) in test [7]; 34.6 µM (inactive) in test [8]; > 100 µM (inactive) in test [16]; > 100 µM (inactive) in [10]; 19.6 µM (inactive) in test [17]. Also, the GI50 in test [11] was 19.6 µM (inactive); in test [12], 19.6 µM (inactive); in test [13], > 100 µM (inactive); in test [14], 22.8 µM (inactive); in test [15] it was 17.5 µM (inactive).

With `CCCCCC(C)C[C@H]1CO[C@H](c2ccc[nH]2)N[C@H]1C(=O)OC` (some centres not stated), the GI50 in test [1] is > 100 µM (inactive); in test [2], > 100 µM (inactive); in [3], over 100 µM; in [18], 29.9 µM (inactive); in [4] it was > 100 µM (inactive); in test [5] it was > 100 µM (inactive). Further, the GI50 in [6], in [7], in test [8], in test [16], in test [10] and in [17] was > 100 µM (inactive) throughout. The GI50 in test [11], in test [12], in test [13] and in [14] was > 100 µM (inactive) in each case.

For the compound `Cc1oc2c(cc(O)c3ccccc32)c2cccc1-2`, the GI50 was > 100 µM (inactive) in test [1]; > 100 µM (inactive) in [2]; 99.5 µM in test [3]; > 100 µM (inactive) in test [18]; > 100 µM (inactive) in [4]; > 100 µM (inactive) in test [6]. Besides, the GI50 in test [7], in test [8], in [16], in [10], in [17] and in test [11] was > 100 µM (inactive) throughout. The GI50 in test [12] and in [14] was > 100 µM (inactive) in each case.
